The values that follow come from US10301284B2, “Therapeutic inhibitory compounds” (LifeSci Pharmaceuticals, Inc., priority 2016, dated 2019).

The target in this assay is human Plasma Kallikrein (Homo sapiens (Human), UniProt P03952). Put plainly: In vitro enzyme inhibition of human plasma kallikrein (Pro-Phe-Arg-AMC cleavage). It counts as biochemical. On the procedure:
The ability of the compounds disclosed herein to inhibit human plasma kallikrein activity was quantified according to the procedures below.
A 10 mM solution of the test compound was made in DMSO. This solution was serially diluted 1:5 in DMSO to yield 2000, 400, 80, 16, 3.2, 0.64, 0.128, 0.0256 and 0.00512 μM compound test solutions. A control tube containing only DMSO is included. 16 μL of each compound test solution was combined with 384 μL of assay buffer (50 mM Tris-HCl pH 7.5, 150 mM NaCl, 0.01% Triton X-100) to yield a “4× test compound buffer stock”.
Separately, a 40 nM solution of human Plasma Kallikrein (Abcam) and a 93.6 μM solution Pro-Phe-Arg-AMC (Bachem) were made using assay buffer. These solutions are hereby referred to as 4×hPK and 2×PFR-AMC, respectively.
60 μL of each 4× test compound buffer stock was combined with 60 μL of 4×hPK to yield 120 μL of “2× test compound buffer stock/2×hPK”. 50 μL was removed from this mixture and placed into duplicate wells on a Microfluor 1Black U-bottom microtiter plate (Thermo Scientific). This plate was incubated for 5 minutes at 37° C. To each well, 50 μL of pre-warmed 2×PFR-AMC was added to start the enzymatic reaction. Cleavage of PFR-AMC was monitored in a Biotek Synergy H4 reader set at 37° C. Readings are taken every 43 seconds for 1 hour. The highest mean velocity over 20 reads (˜15 minutes) is used to calculate the IC50. The IC50 is calculated using the Gen5 (Biotek Instruments).
The ability of the compounds listed in Table 2 to inhibit human plasma kallikrein activity was determined.

The mark [1] stands for this setting: human plasma kallikrein, PFR-AMC substrate, 37° C., read-out: hPK IC50.

Where two headings read alike, the source gives them in different places.

human Plasma Kallikrein, sequence (P03952 391-638 limits assumed): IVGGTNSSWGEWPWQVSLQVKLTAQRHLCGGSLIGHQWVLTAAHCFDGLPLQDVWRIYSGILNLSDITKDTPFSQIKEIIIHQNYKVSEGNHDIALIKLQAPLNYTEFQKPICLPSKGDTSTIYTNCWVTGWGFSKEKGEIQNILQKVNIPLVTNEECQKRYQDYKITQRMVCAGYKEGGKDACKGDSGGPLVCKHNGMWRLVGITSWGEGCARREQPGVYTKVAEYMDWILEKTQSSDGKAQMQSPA
human Plasma Kallikrein, sequence (P03952 20-390 partner limits assumed): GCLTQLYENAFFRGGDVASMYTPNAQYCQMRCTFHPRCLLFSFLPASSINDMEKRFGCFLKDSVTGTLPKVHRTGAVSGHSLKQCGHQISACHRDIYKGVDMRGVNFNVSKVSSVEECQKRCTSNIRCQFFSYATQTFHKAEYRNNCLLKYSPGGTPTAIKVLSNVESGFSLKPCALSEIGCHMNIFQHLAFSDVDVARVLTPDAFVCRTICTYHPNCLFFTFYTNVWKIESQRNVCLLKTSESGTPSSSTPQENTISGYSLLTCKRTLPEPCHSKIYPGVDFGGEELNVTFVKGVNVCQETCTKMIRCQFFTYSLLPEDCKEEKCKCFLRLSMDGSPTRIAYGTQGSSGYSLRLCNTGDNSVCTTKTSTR

For `Cc1cc(N)nc(C)c1CNC(=O)c1cn(Cc2ccc3ncc(Cl)cc3c2)c2ncc(C#N)cc12` [Example 135, N-((6-amino-2,4-dimethylpyridin-3-yl)methyl)-1-((3-chloroquinolin-6-yl)methyl)-5-cyano-1H-pyrrolo[2,3-b]pyridine-3-carboxamide], the IC50 lay within 100 to 1000 nM. Regarding `Nc1nccc2cc(CNC(=O)c3nnc(Cc4ccc5ncc(Cl)cc5c4)o3)ccc12` [Example 46, N-((1-aminoisoquinolin-6-yl)methyl)-5-((3-chloroquinolin-6-yl)methyl)-1,3,4-oxadiazole-2-carboxamide], the IC50 under setting [1] was 100 to 1000 nM. With `Cc1nc(N)ccc1CNC(=O)c1cn(Cc2ccc3ncc(Cl)cc3c2)nc1C` [Example 85, N-((6-amino-2-methylpyridin-3-yl)methyl)-1-((3-chloroquinolin-6-yl)methyl)-3-methyl-1H-pyrazole-4-carboxamide], the IC50 under setting [1] was under 100 nM. For the molecule `N#Cc1nn(Cc2ccc3ncc(Cl)cc3c2)cc1C(=O)NCc1cnc2[nH]cc(Cl)c2c1` [Example 50, N-((3-chloro-1H-pyrrolo[2,3-b]pyridin-5-yl)methyl)-1-((3-chloroquinolin-6-yl)methyl)-3-cyano-1H-pyrazole-4-carboxamide], the IC50 under setting [1] was in the range of 100 to 1000 nM.

`Cc1cc(N)nc(C)c1CNC(=O)c1nn(Cc2ccc3ncc(Cl)cc3c2)c2ccnc(Cl)c12` [Example 119, N-((6-amino-2,4-dimethylpyridin-3-yl)methyl)-4-chloro-1-((3-chloroquinolin-6-yl)methyl)-1H-pyrazolo[4,3-c]pyridine-3-carboxamide]: the IC50 was in the range of 100 to 1000 nM. `Cc1cc(N)nc(C)c1CNC(=O)c1cnc(C(=O)c2ccc3ncc(Cl)cc3c2)o1` [Example 80, N-((6-amino-2,4-dimethylpyridin-3-yl)methyl)-2-(3-chloroquinoline-6-carbonyl)oxazole-5-carboxamide]: under setting [1], the IC50 is over 10000 nM. The same measure, in the same setting: the value for `Cc1cc(N)nc(C)c1CNC(=O)c1nc(C#N)n(Cc2ccc3ncc(Cl)cc3c2)n1` [Example 101, N-((6-amino-2,4-dimethylpyridin-3-yl)methyl)-1-((3-chloroquinolin-6-yl)methyl)-5-cyano-1H-1,2,4-triazole-3-carboxamide] was over 10000 nM; that for `Cc1cc(N)nc(C)c1CNC(=O)c1[nH]c(Cc2ccc3ncc(Cl)cc3c2)nc1Br` [Example 106, N-((6-amino-2,4-dimethylpyridin-3-yl)methyl)-4-bromo-2-((3-chloroquinolin-6-yl)methyl)-1H-imidazole-5-carboxamide] was under 100 nM; that for `Cc1nc(N)ccc1CNC(=O)c1nnc(Cc2ccc3ncc(Cl)cc3c2)[nH]1` [Example 97, N-((6-amino-2-methylpyridin-3-yl)methyl)-5-((3-chloroquinolin-6-yl)methyl)-4H-1,2,4-triazole-3-carboxamide] was under 100 nM. On to `Cc1cc(N)nc(C)c1CNC(=O)c1cn(Cc2cc(C(N)=O)c3ncc(Cl)cc3c2)nc1C#N` [Example 72, 6-((4-(((6-amino-2,4-dimethylpyridin-3-yl)methyl)carbamoyl)-3-cyano-1H-pyrazol-1-yl)methyl)-3-chloroquinoline-8-carboxamide], for which, under setting [1], the IC50 is under 100 nM. Consider `O=C(NCc1cc2c(Cl)c[nH]c2cc1F)c1nnc(Cc2ccc3ncc(Cl)cc3c2)o1` [Example 44, N-((3-chloro-6-fluoro-1H-indol-5-yl)methyl)-5-((3-chloroquinolin-6-yl)methyl)-1,3,4-oxadiazole-2-carboxamide], for which the IC50 under setting [1] lay within 100 to 1000 nM.

For the molecule `Cc1cc(N)nc(C)c1CNC(=O)c1cn(Cc2ccc3ncc(Cl)cc3c2)c2ccnc(C#N)c12` [Example 133, N-((6-amino-2,4-dimethylpyridin-3-yl)methyl)-1-((3-chloroquinolin-6-yl)methyl)-4-cyano-1H-pyrrolo[3,2-c]pyridine-3-carboxamide], the IC50 under setting [1] is under 100 nM.

For `Cc1cc(N)nc(C)c1CNC(=O)c1c2c(N)cccc2nn1Cc1ccc2ncc(Cl)cc2c1` [Example 140, 4-amino-N-((6-amino-2,4-dimethylpyridin-3-yl)methyl)-2-((3-chloroquinolin-6-yl)methyl)-2H-indazole-3-carboxamide], the IC50 under setting [1] was over 10000 nM. For the molecule `Cc1nc(N)ccc1CNC(=O)c1ncc(Cc2ccc3ncc(Cl)cc3c2)o1` [Example 84, N-((6-amino-2-methylpyridin-3-yl)methyl)-5-((3-chloroquinolin-6-yl)methyl)oxazole-2-carboxamide], the IC50 under setting [1] is under 100 nM. Same read-out and setting: then `Cc1cc(N)nc(C)c1CNC(=O)c1nc(Cc2ccc3ncc(Cl)cc3c2)nn1C` [Example 99, N-((6-amino-2,4-dimethylpyridin-3-yl)methyl)-3-((3-chloroquinolin-6-yl)methyl)-1-methyl-1H-1,2,4-triazole-5-carboxamide], with under 100 nM; and `Cc1cc(N)nc(C)c1CNC(=O)c1cnc(Cc2ccc3ncc(Cl)cc3c2)o1` [Example 89, N-((6-amino-2,4-dimethylpyridin-3-yl)methyl)-2-((3-chloroquinolin-6-yl)methyl)oxazole-5-carboxamide], with under 100 nM. Consider `Cc1cc(N)nc(C)c1CNC(=O)c1cn(Cc2ccc3ncc(Cl)cc3c2)c(C#N)n1` [Example 113, N-((6-amino-2,4-dimethylpyridin-3-yl)methyl)-1-((3-chloroquinolin-6-yl)methyl)-2-cyano-1H-imidazole-4-carboxamide], for which, under setting [1], the IC50 is 100 to 1000 nM.

Consider `Cc1cc(N)nc(C)c1CNC(=O)c1cnn(Cc2ccc3ncc(Cl)cc3c2)c1C#N` [Example 40, N-((6-amino-2,4-dimethylpyridin-3-yl)methyl)-1-((3-chloroquinolin-6-yl)methyl)-5-cyano-1H-pyrazole-4-carboxamide], for which the IC50 under setting [1] was in the range of 1000 to 10000 nM. In the case of `Cc1cc(N)nc(C)c1CNC(=O)c1cn(Cc2cc(S(C)(=O)=O)c3ncc(Cl)cc3c2)nc1C#N` [Example 68, N-((6-amino-2,4-dimethylpyridin-3-yl)methyl)-1-((3-chloro-8-(methylsulfonyl)quinolin-6-yl)methyl)-3-cyano-1H-pyrazole-4-carboxamide], the IC50 under setting [1] is under 100 nM. With `Cc1cc(N)nc(C)c1CNC(=O)c1cn(Cc2ccc3ncc(Cl)cc3c2)nc1CO` [Example 92, N-((6-amino-2,4-dimethylpyridin-3-yl)methyl)-1-((3-chloroquinolin-6-yl)methyl)-3-(hydroxymethyl)-1H-pyrazole-4-carboxamide], the IC50 under setting [1] was under 100 nM. Turning to `Cc1cc(N)nc(C)c1CNC(=O)c1c2ccccc2nn1Cc1ccc2ncc(Cl)cc2c1` [Example 14, N-((6-amino-2,4-dimethylpyridin-3-yl)methyl)-2-((3-chloroquinolin-6-yl)methyl)-2H-indazole-3-carboxamide], the IC50 under setting [1] was over 10000 nM.

With `Cc1cc(N)nc(C)c1CNC(=O)c1nn(Cc2ccc3ncc(Cl)cc3c2)c2cnc(C#N)cc12` [Example 130, N-((6-amino-2,4-dimethylpyridin-3-yl)methyl)-1-((3-chloroquinolin-6-yl)methyl)-5-cyano-1H-pyrazolo[3,4-c]pyridine-3-carboxamide], the IC50 under setting [1] was under 100 nM.

Take `CCOC(=O)c1nc(C(=O)NCc2c(C)cc(N)nc2C)nn1Cc1ccc2ncc(Cl)cc2c1` [Example 142, ethyl 3-(((6-amino-2,4-dimethylpyridin-3-yl)methyl)carbamoyl)-1-((3-chloroquinolin-6-yl)methyl)-1H-1,2,4-triazole-5-carboxylate]: under setting [1], the IC50 is over 10000 nM. Same read-out and setting: then “N-((6-amino-2,4-dimethylpyridin-3-yl)methyl)-1-((3-chloroquinolin-6-yl)methyl)-3-cyano-1H-1,2,4-triazole-5-carboxamide [Example 107]”, with 100 to 1000 nM. Same read-out and setting: the value for `Cc1cc(N)nc(C)c1CNC(=O)c1cn(Cc2ccc3ncc(Cl)cc3c2)c(CN)n1` [Example 112, N-((6-amino-2,4-dimethylpyridin-3-yl)methyl)-2-(aminomethyl)-1-((3-chloroquinolin-6-yl)methyl)-1H-imidazole-4-carboxamide] was 100 to 1000 nM; that for `Cc1cc(N)nc(C)c1CNC(=O)c1nn(Cc2ccc3ncc(Cl)cc3c2)cc1[N+](=O)[O-]` [Example 18, N-((6-amino-2,4-dimethylpyridin-3-yl)methyl)-1-((3-chloroquinolin-6-yl)methyl)-4-nitro-1H-pyrazole-3-carboxamide] was under 100 nM; that for `Cc1cc(N)nc(C)c1CNC(=O)c1nn(Cc2ccc3ncc(Cl)cc3c2)c2c[nH]c(=O)cc12` [Example 124, N-((6-amino-2,4-dimethylpyridin-3-yl)methyl)-1-((3-chloroquinolin-6-yl)methyl)-5-oxo-5,6-dihydro-1H-pyrazolo[3,4-c]pyridine-3-carboxamide] was 100 to 1000 nM.

On to `Cc1cc(N)nc(C)c1CNC(=O)c1oc(Cc2ccc3ncc(Cl)cc3c2)nc1C#N` [Example 87, N-((6-amino-2,4-dimethylpyridin-3-yl)methyl)-2-((3-chloroquinolin-6-yl)methyl)-4-cyanooxazole-5-carboxamide], for which the IC50 under setting [1] is under 100 nM.

As a reminder, the IC50 is the midpoint of a concentration-inhibition curve.
